Tests used:
[1] = Toxicity test, oral, mice; conditions: mouse, in vivo, ddY male mice 5 weeks old
Method: Several compounds of the present invention represented by the general formula (I) were administered orally by compulsion to ddY male mice of 5 weeks old (average weight, ca. 20 g).

[2] = tested on: hypertensive action by angiotensin II; assay: Inhibition on the hypertensive action by an exogenous angiotensin II in conscious rats; format: in vivo, Spraque-Dawley (SD) male rats; conditions: oral; for ED50: Rattus norvegicus, within 6 hours after administration, read-out: ED50 (dose required for inhibiting the hypertensive action by angiotensin II to the extent of 50%); for inhibitory effect on the hypertensive action by angiotensin II: angiotensin II 0.1 μg/kg i.v.
Text: (§1) The angiotensin II antagonistic activities in vitro were compared on the basis of the intensities (pA2 value) of antagonizing the contraction response to angiotensin II at the isolated thoracic aorta of rabbit. The in vivo activities were examined by comparing the inhibitory effects on the hypertensive action by an exogenous angiotensin II in a non-anesthetized rat and the hypotensive effects of a renal hypertensive rat or a spontaneously hypertensive rat.
Anesthetized Spraque-Dawley (SD) male rats were cannulated into a femoral artery and a femoral vein and used for the experiment at the time when it has elapsed at least 24 hours after the operation. The hypertensive action caused by angiotensin II (0.1 μg/kg) which has been administered through the vein catheter was measured under conscious and unrestrained condition before and after administration of the compound. The artery catheter was connected to a pressure transducer to measure a mean blood pressure, and the subject compounds were orally administered in the form of a homogeneous suspension in a 0.5% aqueous carboxymethyl cellulose solution.
The intensities of the inhibitory effects within 6 hours after administration of the compound were examined on the basis of the dose of the compound required for inhibiting the hypertensive action by angiotensin II to the extent of 50% (ED50 values).

[3] = biological target: T1, contraction response to angiotensin II at the isolated thoracic aorta of rabbit (Oryctolagus cuniculus, UniProt P34976); assay: In vitro angiotensin II antagonism, isolated rabbit thoracic aorta (Schild pA2); format: cell-based; conditions: Schild plot
T1 construct: A strip of thoracic aorta of a male rabbit (2.5-3.0 kg) was prepared by the usual method; from tissue; host or cells: rabbit thoracic aorta strip
T1 sequence (P34976 1-359): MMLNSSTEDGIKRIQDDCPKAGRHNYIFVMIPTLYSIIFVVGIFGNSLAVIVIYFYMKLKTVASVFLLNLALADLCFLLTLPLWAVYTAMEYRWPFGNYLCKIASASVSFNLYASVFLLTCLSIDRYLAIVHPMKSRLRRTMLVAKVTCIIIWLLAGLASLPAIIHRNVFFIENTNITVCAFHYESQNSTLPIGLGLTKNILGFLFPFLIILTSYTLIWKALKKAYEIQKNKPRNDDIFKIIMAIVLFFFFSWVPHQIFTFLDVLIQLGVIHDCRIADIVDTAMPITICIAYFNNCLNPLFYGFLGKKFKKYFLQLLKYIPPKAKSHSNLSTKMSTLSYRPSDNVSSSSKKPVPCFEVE
Text: as §1
A strip of thoracic aorta of a male rabbit (2.5-3.0 kg) was prepared by the usual method and suspended in an organ bath containing well oxygenated Krebs-Henseleit solution at 37° C. The pA2 value was calculated according to the method described by H. O. Schild (British Journal of Pharmacology and Chemotherapeutics, 2, 189-206, 1947). A strip treated with 3-5 doses of a subject compound in an amount of 10^-6 M-10^-10 M and a strip treated with no drug were employed for obtaining a dose-response curve by angiotensin II. Log (dose ratio--1) was calculated from the shift of the dose-response curve of the subject compound, and pA2 value was obtained from the Schild plottings.

Fisher 344 male rats = assay: Antianxiety effect, elevated plus maze; format: in vivo; conditions: diazepam 3 mg/kg
Method: The subject compounds were examined on their antianxiety effect with the light and dark box according to the method described by B. Costall et al. (Pharmacology Biochemistry and Behavior, 32, 777-785, 1989) and with the elevated plus maze by S. Pell et al. (Journal of Neuroscience Methods, 14, 149-167, 1985).
To Fisher 344 male rats (5-6 weeks old), the subject compounds were orally administered at a dose of 1-100 μg/kg in the form of a homogeneous suspension or solution in a 0.5% aqueous carboxymethyl cellulose solution. Among the four arms of the elevated plus maze (a device in which four arms are intersected crosswise and connected together at a height of 50 cm from the floor), the two arms with side walls are referred to as closed arms and the two arms without side walls are referred to as open arms. […] As the indices of the behavior, the latency until stepped out from the arm first placed to the other arm and the durations in the respective arms were measured, and the other behaviors were recorded. Diazepam was used as a control agent, and the drug administered group and the solvent administered group (group to which a 0.5% aqueous carboxymethyl cellulose solution was administered)were compared for the behaviors.

SMILES | inhibitory effect on the hypertensive action by angiotensin II ([2]; dose of 1 mg/kg or less) | Kb [3] [nM] | inhibitory effect on the hypertensive action by angiotensin II ([2]; 3 mg/kg) | other results
CCc1cc(OCc2ccc(-c3ccccc3-c3nnn[nH]3)cc2)cc(CC)n1 [Example 1, 2,6-Diethyl-4-[2'-(tetrazol-5-yl)biphenyl-4-yl]-methoxypyridine] | significant inhibitory effects | 5.25 | – | LD50 [1]: > 1000 mg/kg; ED50 [2]: 0.6 mg/kg
CCc1cc(OCc2ccc(-c3ccccc3-c3nnn[nH]3)cc2)cc(C)n1 [Example 3, 2-ethyl-6-methyl-4-[2'-(tetrazol-5-yl)biphenyl-4-yl]-methoxypyridine] | – | 5.75 | – | LD50 [1]: > 1000 mg/kg; ED50 [2]: 1.35 mg/kg
CCOc1c(OCc2ccc(-c3ccccc3-c3nnn[nH]3)cc2)cc(C)nc1C [Example 12, 3-ethoxy-2,6-dimethyl-4-[2'-(tetrazol-5-yl)biphenyl-4-yl]methoxypyridine] | significant inhibitory effects | 1.74 | – | LD50 [1]: > 1000 mg/kg; ED50 [2]: 0.56 mg/kg
CCc1nc(C)cc(OCc2ccc(-c3ccccc3-c3nnn[nH]3)cc2)c1OC [Example 16, 2-ethyl-3-methoxy-6-methyl-4-[2'-(tetrazol-5-yl)biphenyl-4-yl]methoxypyridine] | significant inhibitory effects | 0.912 | – | –
Cc1cc(OCc2ccc(-c3ccccc3-c3nnn[nH]3)cc2)c(OCc2ccccc2)c(C)n1 [Example 21, 3-benzyloxy-2,6-dimethyl-4-[2'-(tetrazol-5-yl)biphenyl-4yl]-methoxypyridine] | – | 6.76 | significant inhibitory effects | –
CCOC(=O)c1c(OCc2ccc(-c3ccccc3-c3nnn[nH]3)cc2)cc(CC)nc1C [Example 44, 3-ethoxycarbonyl-6-ethyl-2-methyl-4-[2'-(tetrazol-5-yl)-biphenyl-4-yl]methoxypyridine] | – | 1 | significant inhibitory effects | –
CCc1nc(C)cc(OCc2ccc(-c3ccccc3-c3nnn[nH]3)cc2)c1C(=O)OC [Example 46, 2-ethyl-3-methoxycarbonyl-6-methyl-4-[2'-(tetrazol-5-yl)-biphenyl-4-yl]methoxypyridine] | significant inhibitory effects | 0.617 | – | –
Cc1cc(OCc2ccc(-c3ccccc3-c3nnn[nH]3)cc2)c(C(=O)N(C)C)c(C)n1 [Example 53, 2,6-Dimethyl-3-(N,N-dimethylcarbamoyl)-4-[2'-(tetrazol-5-yl)bipbenyl-4-yl]methoxypyridine] | – | 3.02 | significant inhibitory effects | –
Cc1cc(OCc2ccc(-c3ccccc3-c3nn[nH]n3)cc2)c(CO)c(C)n1 [Example 55, 3-Hydroxymethyl-2,6-dimethyl-4-[2'-(tetrazol-5-yl)biphenyl-4-yl]methoxypyridine] | – | 12.3 | – | –
COCc1c(OCc2ccc(-c3ccccc3-c3nnn[nH]3)cc2)cc(C)nc1C [Example 57, 3-Methoxymethyl-2,6-dimethyl-4-[2'-(tetrazol-5-yl)-biphenyl-4-yl]methoxypyridine] | – | 6.17 | significant inhibitory effects | –
CC(=O)OCc1c(OCc2ccc(-c3ccccc3-c3nnn[nH]3)cc2)cc(C)nc1C [Example 67, 3-Acetoxymethyl-2,6-dimethyl-4-[2'-(tetrazol-5-yl)-biphenyl-4-yl]methoxypyridine] | – | 0.129 | – | –
Cc1cc(OCc2ccc(-c3ccccc3-c3nnn[nH]3)cc2)c(C=O)c(C)n1 [Example 68, 3-Formyl-2,6-dimethyl-4-[2'-(tetrazol-5-yl)biphenyl-4-yl]methoxypyridine] | – | 5.89 | – | –
CCc1cc(OCc2ccc(-c3ccccc3C(=O)O)cc2)cc(CC)n1 [Example 81, 2,6-diethyl-4-(2'-carboxybiphenyl-4-yl)m ethoxypyridine] | – | 9.77 | significant inhibitory effects | –
CCOc1c(OCc2ccc(-c3ccccc3C(=O)O)cc2)cc(C)nc1C [Example 83, 3-ethoxy-2,6-dimethyl-4-(2'-carboxybiphenyl-4yl)methoxypyridine] | significant inhibitory effects | 28.2 | – | LD50 [1]: > 1000 mg/kg; ED50 [2]: 1.21 mg/kg
CN1C(=O)CN=C(c2ccccc2)c2cc(Cl)ccc21 [diazepam] | – | – | – | duration out of the closed arm (Fisher 344 male rats): increased; latency until stepped out from the arm first placed (Fisher 344 male rats): significantly decreased; transitions (Fisher 344 male rats): increased
